According to patent US7880021B2, “Compounds and kits for the detection and the quantification of cell apoptosis” (Centre National de la Recherche Scientifique (CNRS), priority 2005, dated 2011):

Legend:
[1] = test system: human lymphoid cell line CEM T; assay: Toxicity test by flow cytometry using PI; format: cell-based; conditions: 1 μM F2N12S; 0.5, 1 and 4 hours incubation
Method: The toxicity of the F2N12S molecules was tested by flow cytometry using PI (19 μM). Cells were washed twice as described above and separated in nine batches: three batches for control measurements, three batches with 10^-7 M F2N12S and three batches with 10^-6 M F2N12S. The batches were incubated for 0.5 hour, 1 hour and 4 hours, respectively. The 488 nm line of an argon laser was used as the excitation light source. Emission was collected by using the 630FD22 filter.
Next, the cytotoxicity of the newly synthesized probe, F2N12S, was evaluated on the human lymphoid cell line CEM T. F2N12S was added at 0.1 μM (working concentration) and 1 μM and, incubated for different times (0.5, 1 and 4 hours).

[2] = Fluorescence properties of the probes (absorption maximum, band resolution); format: physicochemical
From the text: The probe TCN12S is an analog of F2N12S and was synthesized to improve the fluorescence properties. Indeed, substitution of the 2-phenyl group with 2-thienyl shifts the absorption maximum from 420 nm to 445 nm, making this probe suitable for excitation with a He/Cd laser (442 nm). Moreover, the resolution between the two emission bands increases from 90 nm (F2N12S) to 120 nm (TCN12S), favoring two-color ratiometric detection.

3T3 fibroblasts = assay: Flow cytometry F2N12S intensity ratio in 3T3 fibroblasts; format: cell-based; conditions: data not shown
From the text: The probe of the invention F2N12S has been combined with PI and the fluorescence intensities of PI have been represented as a function of the T*/N* ratio of F2N12S (FIG. 6c). In this case, the populations of apoptotic and dead cells are clearly discriminated by using the differences in the PI intensities. […] This conclusion was further strengthened when the populations discriminated by the F2N12S/PI couple were colored according to their response with the annexin V-FITC/PI couple (FIG. 6d).

CEM T cells = assay: Emission spectra in living and apoptotic cell suspensions, and Ca2+ dependence; format: cell-based, human
Method: FIG. 3: Emission spectra of the probe F2N12S in living (solid line) and apoptotic (dash line) CEM cells. Excitation wavelength was 400 nm. Final probe concentration was 0.1 μM.
FIG. 4: Ca^2+ dependence of F2N12S emission spectra in apoptotic CEM cells. The excitation wavelength was 400 nm. The spectra were recorded at Ca^2+ concentrations of 0.2, 0.4, 0.8, 1.2 and 2 mM and normalized. Final probe concentration was 0.1 μM.
Human lymphoid CEM T cells were cultured in X-vivo 15 medium (Cambrex, France) at 37° C. in humidified 5% CO2 atmosphere. Cell viability was checked by trypan blue exclusion. Cells were seeded at 5×10^5 cells/ml in the presence or absence of actinomycin D (0.5 μg/ml) for 18 h. […]
The cells were washed twice by HBSS before each experiment to eliminate fetal bovine serum. […] For fluorescence measurements with the probe of the invention F2N12S (fluorometry, flow cytometry and confocal microscopy), cells were resuspended in HBSS with 0.1 μM F2N12S. […] The staining pattern of the cells was checked with a Confocal Imaging System MRC-1024 (BioRad) to ascertain that fluorescence originates from the plasma membrane.
Fluorescence spectra were recorded on a FLUOROMAX-3® (spectrofluorometer) (JobinYvon Horiba). The excitation wavelength for fluorescence emission spectra of F2N12S probes was 400 nm. […]

Which results are given for “1-dodecanaminium, N-[[2-[4-Diethylaminophenyl]-3-hydroxychromon-6-yl]-methyl]-N-methyl-N-(3-sulfopropyl)-, inner salt [F2N12S]”?
percentage of dead cells [1]: ≤ 4%; absorption maximum [2]: 420 nm; resolution between the two emission bands [2]: 90 nm; F2N12S intensity ratio values compared with T lymphoblastoid cells (3T3 fibroblasts): very similar; relative intensity of the short-wavelength band, apoptotic versus living cells (CEM T cells; actinomycin D-induced apoptosis, cells sorted with FITC-annexin, excitation 400 nm, probe 0.1 μM): ~2 fold; dependence of the response on Ca2+ concentration (CEM T cells; apoptotic cells, Ca2+ 0-2 mM): insensitive
